# Key:
# myrosinase [1] = assay: Equimolar conversion of glucoraphanin to sulforaphane by myrosinase with ascorbic acid (Example 4); format: biochemical, broccoli; settings: control sample, without ascorbic acid
# Experimental: A two-part experiment was conducted to further elucidate the role of ascorbic acid in modulating myrosinase activity. […] A control sample contained no ascorbic acid, and the enzymatic conversion proceeded unassisted by a co-factor. PART 1. […] PART 2. While keeping the amount of broccoli seed extract fixed at 250 mg, the concentration of ascorbic acid was varied from 0.4 mmol/Liter to 3.8 mmol/Liter.
# mammary tumors = settings: Sprague-Dawley rats; cited from earlier work
# mammary epithelium = settings: oral administration, Sprague-Dawley rats; cited from earlier work
# myrosinase [2] = assay: Conversion of glucoraphanin to sulforaphane in Simulated Intestinal Fluid (Example 5); format: biochemical, broccoli; settings: 0.25 to 1.00 mmol/Liter ascorbic acid, 38° C., FIG. 4
# Experimental: Simulated Intestinal Fluid (SIF) powder, a commercially supplied concentrate closely approximating the human intestinal content in terms of composition, pH and ionic strength, was used. The experiment utilized a USP Dissolution Apparatus 2 (paddles), where into six dissolution vessels 500 mL of Simulated Intestinal Fluid was dispensed, along with 150 mg of freeze-dried broccoli sprout powder as a source of myrosinase. […] Aliquots were withdrawn every 15 minutes, and assayed for sulforaphane.
compound,measurement,setting,value
"C[S+]([O-])CCCC/C(=N\OS(=O)(=O)O)S[C@@H]1O[C@H](CO)[C@@H](O)[C@H](O)[C@H]1O (some centres unmarked) [glucoraphanin, 4-methylsulfinylbutyl glucosinolate]",Stoichiometry of conversion of glucoraphanin to sulforaphane,myrosinase [1],equimolar conversion
"C[S+]([O-])CCCCN=C=S (centres unmarked) [SFN, 1-isothiocyanato-4-methylsulfinylbutane]",Blocking the formation of mammary tumors,mammary tumors,effective
same,Elevated immunostaining of the heme oxygenase-1 (HO-1) enzyme,mammary epithelium,4 fold
same,Increase in NAD(P)H:quinine oxidoreductase (NQO1) enzymatic activity,mammary epithelium,3 fold
"O=C1O[C@H]([C@@H](O)CO)C(O)=C1O [Ascorbic Acid, Ascorbic acid]",Yield of sulforaphane versus ascorbic acid concentration,myrosinase [2],direct correlation between larger yield of sulforaphane and higher concentrations of ascorbic acid

# Reference: patent US20150174213A1, “COMPOSITIONS COMPRISING SULFORAPHANE OR A SULFORAPHANE PRECURSOR AND URSOLIC ACID” (Nutramax Laboratories, Inc., priority 2012, published 2015)
